Results taken from patent US4489062A, “Pharmaceutical compounds, preparation, use and intermediates therefor and their preparation” (priority 1982, dated 1984).
Where a SMILES comes first, the peptide text is derived from it. [ ]: non-standard residue; d: D form. Phe(4-NO2) = N[C@@H](Cc1ccc([N+](=O)[O-])cc1)C(=O)O

Experiments:
Format in all cases: in vivo
female CD1 mice [1] = experiment: Irritant-induced writhing test, phenylbenzoquinone (PBQ); settings: s.c. 15 mins. prior to PBQ 2.5 mg/kg, Ex. compounds calculated as the peptide per se; for ED50: Mus musculus, 0.25 h
From the text: (§1) (1) Both the hotplate test (Woolfe and MacDonald, J. Pharmacol. Exp. Ther. 80:300, 1944) and the irritant-induced writhing (stretch) test (Vander Wende and Margolin, Fed. Proc. 15:494, 1956) are standard in the art for the investigation of analgesic activity. Whereas it is believed that the pain in the latter can be ameliorated either centrally or peripherally, it is thought that that induced in the hotplate test is affected only at the central level.
(§2) (i) Acetic Acid. Groups of five female CD1 mice (Charles River) received either a test compound or saline vehicle (0.85%) control by subcutaneous injection 15 mins. (unless otherwise indicated) prior to an intraperitoneal injection of 0.6% acetic acid at a dose volume of 25 ml/kg. After a further 20 mins. the writhing or stretching movements induced by the irritant were counted over a 21/2 min. period, a writhe/stretch being identified as an extension of a hindlimb accompanied by constriction of the abdomen.
(ii) Phenylbenzoquinone (PBQ). This test was carried out in a parallel manner to that employing acetic acid, […], except that the period over which the writhing/stretching movements were counted began 10 mins. after administration of the PBQ irritant, the latter being given at a dosage of 2.5 mg/kg and in a dose volume of 10 ml/kg.
(§3) The ED50 figures for the test compounds were calculated, using linear regression analysis, as the dose in the presence of which only half the number of writhes/stretches was induced compared with the controls.

male TFW mice = experiment: Antagonism by quaternary opioid (N-methylnalorphine) in acetic acid writhing test; settings: for ED50 (mg/kg, s.c.) Saline control (b) / ED50: acetic acid writhing, saline i.p. 20 mins. before test compound s.c., Ex. compounds calculated as the peptide per se; for Dose ratio (a):(b): ratio of equiactive doses in presence and absence of N-methylnalorphine, calculated from the linear regression of the dose/response curves; for ED50: Mus musculus, 20 min, read-out: ED50 (mg/kg, s.c.) Saline control (b)
From the text: (3) The analgesia induced by the peptides in the writhing test upon peripheral (parenteral) administration is antagonised by parenteral administration of the quaternary opioid antagonist N-allyl-normorphine methiodide (N-methylnalorphine; Koczka et al, Acta Chim. Acad. Sci. Hung. 51:393, 1967), i.e. a higher dose of the peptide is required in the presence than in the absence of the opioid for the same effect. As penetration of the blood-brain barrier by the quaternary compound is minimal (c.f. Tavani et al, European J. Pharmacol. 59:151-154, 1979) both the peptide-induced analgesia and the antagonism thereof are effected at the peripheral level.
Groups of six male TFW mice (Tuck) received by intraperitoneal injection either N-methylnalorphine (16 mg/kg) or saline vehicle (0.85%) control at a volume of 10 ml/kg followed after 20 mins. by a solution of the test compound in saline (10 ml/kg, subcutaneous) and after a further 30 mins. by 0.6% acetic acid (25 ml/kg, intraperitoneal). The total number of writhes/stretches per group was then determined over the 5 min. period commencing 15 mins. after administration of the acetic acid. Using linear regression analysis the ED50 figures for the test compounds were calculated (defined as in (B) supra) together with the dose ratios therefor, i.e. the ratios of the dose of compound required for equiactive antinociceptive effect in respectively the presence and the absence of the quaternary compound.

Female Cobs Wistar rats = experiment: Antidiarrhoeal activity (castor oil-induced diarrhoea); settings: calculated as the peptide per se; for ED50 (mg/kg, s.c.) antidiarrhoeal, 1.5 hrs.: 1.5 hrs. post castor oil; for ED50 (mg/kg, s.c.) antidiarrhoeal, 2.0 hrs.: 2.0 hrs. post castor oil; for ED50 (mg/kg, s.c.) antidiarrhoeal, 3.0 hrs.: 3.0 hrs. post castor oil
Experimental: Female Cobs Wistar rats (Charles River) were starved for 24 hours prior to subcutaneous administration of the test compound as a solution in 0.85% (w/w) saline and at a volume of 10 ml/kg. Fifteen minutes after the compound each rat received 1 ml. castor oil given orally and the animals were then observed for the appearance of diarrhoea.

Male mice (CFLP strain) = experiment: Hotplate test; settings: 55° C. hotplate, 15 mins. after treatment, reaction time twice the pretreatment figure, Ex. compounds calculated as the peptide per se; for ED50: Mus musculus, sc
From the text: as §1
Male mice (CFLP strain, Hacking and Churchill) were individually placed in a copper-bottomed perspex box suspended in a water bath at 55° C. and observed for signs of discomfort such as shaking or licking the paws, the reaction time (up to a maximum of 30 secs.) being recorded. Groups of five animals then received either a test compound or saline vehicle (0.85%) control by subcutaneous injection, the test being repeated at 15 mins. after treatment. The ED50 figures for the test compounds were calculated from the number of animals having a posttreatment reaction time which was twice the pretreatment figure.

female CD1 mice [2] = experiment: Irritant-induced writhing test, acetic acid; settings: s.c. 15 mins. prior to i.p. 0.6% acetic acid, Ex. compounds calculated as the peptide per se; for ED50: Mus musculus, 0.25 h
From the text: as §1, §2, §3

marmosets = experiment: Toxicology, 14-day subcutaneous administration, marmosets; settings: s.c. daily for 14 days at 7.5, 15 or 30 mg/kg per day (as peptide per se)
Experimental: (§4) The diacetate product of Example 1 was administered subcutaneously to rats and marmosets as a solution in 0.85% (w/w) saline at a volume of 0.1 ml/100 g bodyweight. For each species the compound was given daily for 14 days at a dose (calculated as the peptide per se) selected from 7.5, 15 and 30 mg/kg bodyweight per day.

rats = experiment: Toxicology, 14-day subcutaneous administration, rats; settings: rat; s.c. daily for 14 days at 7.5, 15 or 30 mg/kg per day (as peptide per se)
Experimental: as §4

guinea pigs = experiment: Antitussive activity (citric acid aerosol-induced cough); settings: s.c. 30 minutes before 30% citric acid aerosol; calculated as the peptide per se; 95% confidence limits 0.04-2.6 mg/kg
Experimental: In this test procedure, a modification of that described by Boura et al., Br. J. Pharmac., 39/1 (1970) 225, guinea pigs were subjected to an aerosol containing 30% citric acid, 30 minutes after subcutaneous administration of test compound as a solution in 0.85% (w/w) saline, and the number of coughs during a 121/2-minute exposure counted.

## H--Tyr--D--Met(Me)--Gly--Phe(4NO2)--Pro.NH2 chloride, hydrochloride [Ex. 2]
Female CD1 mice [1]
  ED50 (mg/kg, s.c.) PBQ writhing: 4.6 mg/kg
Male TFW mice
  ED50 (mg/kg, s.c.) Saline control (b): 1.5 mg/kg
  Dose ratio (a):(b): 3.3
Female Cobs Wistar rats
  ED50 (mg/kg, s.c.) antidiarrhoeal, 1.5 hrs.: 0.16 mg/kg
  ED50 (mg/kg, s.c.) antidiarrhoeal, 2.0 hrs.: 0.89 mg/kg
  ED50 (mg/kg, s.c.) antidiarrhoeal, 3.0 hrs.: 8.61 mg/kg
Male mice (CFLP strain)
  ED50 (mg/kg, s.c.), hotplate test: 129.5 mg/kg
Female CD1 mice [2]
  ED50 (mg/kg, s.c.) Acetic acid writhing: 1.2 mg/kg

## COc1ccc2c(c1)c(CC(=O)O)c(C)n2C(=O)c1ccc(Cl)cc1 [Indomethacin, reference compound]
Female CD1 mice [1]
  ED50: 0.9 mg/kg
Male mice (CFLP strain)
  ED50: > 100 mg/kg

## CN1CC[C@]23c4c5ccc(O)c4O[C@H]2[C@@H](O)C=C[C@H]3[C@H]1C5 [Morphine, reference compound]
Female CD1 mice [1]
  ED50: 0.38 mg/kg
Male TFW mice
  ED50: 0.4 mg/kg
Male mice (CFLP strain)
  ED50: 1.8 mg/kg

## N--AmidinoTyr--D--Met(Me)--Gly--Phe(4NO2)--Pro.NH2 chloride, hydrochloride [Ex. 4]
Female CD1 mice [1]
  ED50 (mg/kg, s.c.) PBQ writhing: 1.0 mg/kg
Male TFW mice
  ED50 (mg/kg, s.c.) Saline control (b): 0.7 mg/kg
  Dose ratio (a):(b): 4.2
Female Cobs Wistar rats
  ED50 (mg/kg, s.c.) antidiarrhoeal, 1.5 hrs.: 0.07 mg/kg
  ED50 (mg/kg, s.c.) antidiarrhoeal, 2.0 hrs.: 0.14 mg/kg
  ED50 (mg/kg, s.c.) antidiarrhoeal, 3.0 hrs.: 0.84 mg/kg
Male mice (CFLP strain)
  ED50 (mg/kg, s.c.), hotplate test: 43.8 mg/kg
Female CD1 mice [2]
  ED50 (mg/kg, s.c.) Acetic acid writhing: 0.6 mg/kg

## N=C(N)NCCC[C@@H](NC(=O)[C@@H](N)Cc1ccc(O)cc1)C(=O)NCC(=O)N[C@@H](Cc1ccc([N+](=O)[O-])cc1)C(=O)N1CCC[C@H]1C(N)=O [Ex. 1, H--Tyr--D--Arg--Gly--Phe(4--NO2)--Pro.NH2 diacetate] (H-Y[dR]G[Phe(4-NO2)]P-NH2)
marmosets
  clinical signs observed: transient post-dose vomiting and salivation at 30 mg/kg and to a lesser extent at the lower doses
Female CD1 mice [1]
  ED50 (mg/kg, s.c.) PBQ writhing: 4.0 mg/kg
Male TFW mice
  ED50 (mg/kg, s.c.) Saline control (b): 4.6 mg/kg
  Dose ratio (a):(b): 4.1
Female Cobs Wistar rats
  ED50 (mg/kg, s.c.) antidiarrhoeal, 1.5 hrs.: 0.79 mg/kg
  ED50 (mg/kg, s.c.) antidiarrhoeal, 2.0 hrs.: 3.19 mg/kg
  ED50 (mg/kg, s.c.) antidiarrhoeal, 3.0 hrs.: 54.9 mg/kg
Male mice (CFLP strain)
  ED50 (mg/kg, s.c.), hotplate test: 94.8 mg/kg
rats
  toxicity attributable to the compound: No toxicity attributable to the compound was seen
Guinea pigs
  ED50 (dose required to reduce the number of coughs by 50%): 0.26 mg/kg
Female CD1 mice [2]
  ED50 (mg/kg, s.c.) Acetic acid writhing: 4.3 mg/kg

## CC(C)=CCN1CCC2(C)c3cc(O)ccc3CC1C2C (stereo not drawn) [Pentazocine, reference compound]
Male mice (CFLP strain)
  ED50: > 100 mg/kg
Female CD1 mice [2]
  ED50: 2.3 mg/kg

## CCC(=O)O[C@](Cc1ccccc1)(c1ccccc1)[C@H](C)CN(C)C [Dextropropoxyphene, reference compound]
Female CD1 mice [1]
  ED50: 2.6 mg/kg
Male TFW mice
  ED50: 6.8 mg/kg
  Dose ratio (a):(b): 1.0
Male mice (CFLP strain)
  ED50: 25.9 mg/kg
Female CD1 mice [2]
  ED50: 4.2 mg/kg
